The target in the assay is T1, Bruton's tyrosine kinase (BTK) (Homo sapiens, UniProt Q06187).
T1 construct: purified BTK (76 kDa)
Put plainly: IC50 on purified BTK enzyme; also covalent labelling of purified BTK and of BTK in Toledo cells by denaturing gel fluorescence, blocked by Ibrutinib. In kind it is biochemical.

For orientation: IC50 means the point on the concentration scale where inhibition reaches its midpoint.

Molecules are shown by their SMILES.

T1 sequence (Q06187 2-659): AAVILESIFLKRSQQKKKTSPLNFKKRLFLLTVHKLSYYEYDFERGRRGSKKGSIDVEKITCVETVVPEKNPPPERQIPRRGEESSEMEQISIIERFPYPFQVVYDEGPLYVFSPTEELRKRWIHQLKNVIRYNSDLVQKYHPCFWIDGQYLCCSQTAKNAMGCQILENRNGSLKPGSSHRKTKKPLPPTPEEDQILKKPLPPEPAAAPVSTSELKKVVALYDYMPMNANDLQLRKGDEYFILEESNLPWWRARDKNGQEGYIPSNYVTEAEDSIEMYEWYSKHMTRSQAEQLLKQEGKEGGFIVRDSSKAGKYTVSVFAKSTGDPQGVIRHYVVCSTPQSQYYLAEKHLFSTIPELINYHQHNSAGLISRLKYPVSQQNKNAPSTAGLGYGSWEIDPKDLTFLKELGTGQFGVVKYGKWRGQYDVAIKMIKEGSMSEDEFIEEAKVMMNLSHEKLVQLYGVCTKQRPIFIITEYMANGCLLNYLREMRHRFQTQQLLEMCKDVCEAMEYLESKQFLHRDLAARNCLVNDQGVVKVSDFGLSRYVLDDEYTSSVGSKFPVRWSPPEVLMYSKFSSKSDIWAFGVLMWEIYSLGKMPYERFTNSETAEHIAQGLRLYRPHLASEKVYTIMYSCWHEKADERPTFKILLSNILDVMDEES

`Cc1cc(C)n2c1C=C1C=CC(CCC(=O)NC/C=C/C(=O)N3CCC[C@@H](n4nc(-c5ccc(Oc6ccccc6)cc5)c5c(N)ncnc54)C3)=[N+]1[B-]2(F)F` [compound 7, (R,E)-3-(3-((4-(3-(4-amino-3-(4-phenoxyphenyl)-1H-pyrazolo[3,4-d]pyrimidin-1-yl)piperidin-1-yl)-4-oxobut-2-en-1-yl)amino)-3-oxopropyl)-5,5-difluoro-7,9-dimethyl-5H-dipyrrolo[1,2-c:2′,1′-f][1,3,2]diazaborinin-4-ium-5-uide]: the IC50 was ~200 nM.

The record behind these values is publication PMC3998017, “Single cell imaging of Bruton's Tyrosine Kinase using an irreversible inhibitor” (Scientific Reports, 2014).
